The text below walks through data of US9446071B2, “Antimicrobially active compositions based on zinc compound, glycerine monoalkyl ether and antioxidant” (L'AIR LIQUIDE SOCIETE ANONYME POUR L'ETUDE ET …, priority 2012, dated 2016).

In the assay the test system is Streptococcus mutans ATCC: 25175. Briefly: Minimal inhibitory concentration (method C) of mouthwash formulations. It counts as cell-based. To be noted: pH 4. On the procedure: The minimal inhibitory concentration which is required by a preparation in order to inhibit the growth of a defined microorganism is tested.
5 ml of the given product test solution (optionally doubly concentrated) is mixed with 5 ml of doubly concentrated CSS broth. The tubes are then inoculated with 0.1 ml of a test suspension containing 10^8 microbes.
The assessment is performed after 48 hr incubation at 36° C.±1° C. (C. albicans 30° C.±1° C.).
Further, the action of combinations according to the invention against the caries-causing organism Streptococcus mutans in the mouthwash formulations shown in Table 10 was tested.
The pH of the formulations was adjusted to pH 4.

As for `O=C([O-])CC(O)(CC(=O)[O-])C(=O)[O-].O=C([O-])CC(O)(CC(=O)[O-])C(=O)[O-].[Zn+2].[Zn+2].[Zn+2]` [TZC, trizinc citrate], the “Activity against Streptococcus mutans” value is given as “not sufficient”.
Under “PEG-40 macrogol glycerol hydroxystearate [Mghs]” stands “no intrinsic activity”.
